The results in this text go back to publication PMC7459823, “Characterization of Five Novel Anti-MRSA Compounds Identified Using a Whole-Animal Caenorhabditis elegans/Galleria mellonella Sequential-Screening Approach” (Antibiotics, 2020).

One may read the MIC as the lowest concentration found to suppress growth. For orientation: MBC means the lowest tested concentration that kills the bacteria rather than only halting them.

The test system of series [1] is MRSA MW2. In words: Sytox green membrane permeabilization. Format: cell-based, Staphylococcus aureus. The conditions noted are these: compounds at 64 µg/mL, monitored over 1 h. On the procedure:
To determine whether the compounds target bacterial membranes, MRSA MW2 was treated with the compounds and uptake of the membrane-impermeable DNA-binding fluorescent dye Sytox green was monitored over 1 h (Figure 4).
Sytox Green (Life Technologies, Needham, MA, USA) membrane permeabilization assays were performed as previously described. The experiments were carried out in duplicate in 96-well plates. Cells were grown to log phase and were harvested by centrifuging at 3700× g for 5 min. The cells were washed twice with PBS and resuspended to OD600 = 0.2, following which 5 µM Sytox green was added to the cells and the bacteria-dye mixture were incubated in the dark for 30 mins.
Cell suspensions (50 µL) were added to 50 µL of test compounds (64 µg/mL in PBS) and fluorescence intensity was measured (excitation 485 nm, emission 530 nm) periodically over 60 min.

Series [2] has as its system clinical S. aureus isolate BF3. Description: Broth microdilution MIC, clinical S. aureus isolate BF3. Format: cell-based. The following applies: Staphylococcus aureus; BF3; read-out: MIC. On the procedure:
(§1) In vitro antibacterial activities were determined using the broth microdilution method. Assays were performed as described in Clinical and Laboratory Standards Institute protocols in triplicate using cation-adjusted Muller–Hinton broth (Becton Dickinson and Company, Franklin Lakes, NJ, USA) in 96-well plates with a total assay volume of 100 µL. Two-fold serial dilutions of test compounds were prepared over the concentration range of 1–64 µg/mL. The bacterial concentration was adjusted to OD600 = 0.06. […] A 10 µL aliquot from each well in the MIC assays was plated onto Muller–Hinton agar (Becton Dickinson and Company, Franklin Lakes, NJ, USA) and incubated overnight at 37 °C. The lowest concentration of compound for which no growth was observed on agar plates was reported as the minimal bactericidal concentration (MBC).
A general note: Broth dilution looks for growth in wells or tubes with falling amounts of substance.

In series [3] the test system is clinical S. aureus isolate BF4. Description: Broth microdilution MIC, clinical S. aureus isolate BF4. The conditions noted are these: Staphylococcus aureus; BF4; read-out: MIC. It is filed as cell-based. The procedure: as §1
For the next series, the system named is MKN-28. The conditions noted are these: human, 24 h.
Another series relates to A549. The conditions noted are these: human, 24 h.
The subject of the next series is HepG2. The following applies: human, 24 h.
Series [4] concerns clinical S. aureus isolate BF1. Description: Broth microdilution MIC, clinical S. aureus isolate BF1. Format: cell-based. The following applies: Staphylococcus aureus; BF1; read-out: MIC. On the procedure: as §1
In series [5] the test system is MRSA MW2. In words: Broth microdilution antibacterial susceptibility (MIC/MBC), MRSA MW2. Format: cell-based, Staphylococcus aureus. The conditions noted are these: for MBC: MRSA MW2. On the procedure: as §1
For another series, the system named is Acinetobacter baumannii. In words: Broth microdilution MIC, Acinetobacter baumannii. It is filed as cell-based. The following applies: read-out: MIC. The procedure:
as §1

The test system of the next series is MRSA-MW2. In words: Checkerboard synergy assay (FIC index). Format: cell-based, Staphylococcus aureus. The conditions noted are these: synergy FIC ≤ 0.5. The procedure: The combination of two antibiotics with different modes of action can reduce bacterial resistance and sometimes even restore clinical efficacy of an antibiotic that has lost effectiveness. The five compounds were tested against MRSA-MW2 in the presence of five clinical antibiotics from different classes (i.e., polymyxin B, gentamycin, erythromycin, doxycycline, and oxacillin).
Antibacterial synergy for combinations of the compounds with each other and with clinical antibiotics (doxycycline, gentamicin, polymyxin-B, oxacillin, and erythromycin) was measured using checkerboard assays. In short, Cultures of MRSA-MW2 were adjusted to OD600 = 0.06 and one compound was arrayed horizontally and other vertically in 96 well plates. The assays were carried out in triplicate, exactly as described for the antibacterial susceptibility assays. The inhibitory effects of compound combinations were evaluated using the Fractional Inhibitory Concentration (FIC) index, derived from the formula:FIC index = FICA + FICB = [A]/MICA + [B]/MICB
MIC of substance A tested in combination /MIC of substance A tested alone + MIC of substance B tested in combination/MIC of substance B tested alone. Synergy is indicated when FIC ≤ 0.5, indifference when 0.5 ≤ FIC ≤ 4, and antagonism when FIC > 4. Experiments were performed in duplicate and report the average FIC index.

A further series concerns Enterococcus faecium. In words: Broth microdilution MIC, Enterococcus faecium. The conditions noted are these: read-out: MIC. Format: cell-based. On the procedure:
as §1

In series [6] the test system is MRSA MW2. In words: Time-to-kill assay. The following applies: MRSA MW2, compounds at 64 µg/mL, 4 hr; criteria MBC/MIC and 3 log10 CFU decrease. It is filed as cell-based, Staphylococcus aureus. From the text: Time-to-kill assays were used to further probe bactericidal/bacteriostatic properties against MRSA MW2 (Figure 3). Antibacterial compounds are generally considered bactericidal, if the MBC is no more than four times higher than the MIC. Bactericidal activity is defined as greater than 3 log10 -fold decrease in colony forming units, which is equivalent to 99.9% killing of the inoculum. If the MBC is outside this range, compounds are bacteriostatic. According to these criteria, all five compounds were bacteriostatic.
Time-to-kill assays were performed as previously described. Briefly, overnight cultures of MRSA-MW2 were diluted in fresh Tryptic Soy Broth (TSB) to a density of 10^8 cells/mL and placed into 10 mL tubes (Becton Dickinson and Company, Franklin Lakes, NJ, USA). Test compounds dissolved in DMSO over the concentration range 4–64 µg/mL were added and the tubes incubated at 37 °C. At periodic intervals, aliquots from each tube were serially diluted with TSB and plated onto tryptic soy agar (TSA) (Becton Dickinson and Company, Franklin Lakes, NJ, USA). CFUs were enumerated after overnight incubation at 37 °C. Assays were carried out in triplicate.

The test system of series [7] is clinical S. aureus isolate BF2. Description: Broth microdilution MIC, clinical S. aureus isolate BF2. It is filed as cell-based. The conditions noted are these: Staphylococcus aureus; BF2; read-out: MIC. On the procedure: as §1
The test system of the next series is Enterobactor aerogens. In words: Broth microdilution MIC, Enterobactor aerogens. It is filed as cell-based. The conditions noted are these: Enterobactor aerogens; read-out: MIC. On the procedure:
as §1

In a further series the test system is Pseudomonas aeruginosa. Description: Broth microdilution MIC, Pseudomonas aeruginosa. The following applies: read-out: MIC. It is filed as cell-based. On the procedure: as §1

Values after ≈ are worked out from the molar mass of the structure shown. Like-named read-outs stand apart in the source and are kept apart here.

Method for A549: (§2) Mammalian cell lines HepG2 (hepatic cells), A549 (epithelial cells), and MKN-28 (gastric cells) were used to measure the anti-proliferative properties of test compounds, as described elsewhere [28]. Cells were grown in Dulbecco’s Modified Eagle Medium (DMEM) (Gibco, Waltham, MA, USA) supplemented with 10% Fetal Bovine Serum (FBS) (Gibco, Waltham, MA, USA) and 1% penicillin/streptomycin (Gibco, Waltham, MA, USA) and maintained at 37 °C in 5% CO2. After harvesting, the cells were suspended in DMEM and 100 µL was added to the wells of 96-well plates. The test compounds were serially diluted in serum and antibiotic free DMEM, added to the monolayer of cells, and incubated at 37 °C in 5% CO2 for 24 hr. Percentage survival was calculated by comparison to DMSO-treated vehicle controls. Assays were carried out in triplicate.
Method for HepG2: as §2
Method for MKN-28: as §2

On to `Cc1cc(I)ccc1Nc1c(C(=O)NOCC2CC2)cc(F)c(F)c1F` [PD198306, N-(Cyclopropylmethoxy)-3,4,5-trifluoro-2-[(4-iodo-2-methylphenyl)amino]-benzamide], for which the “cellular fluorescence (Sytox green uptake)” value in the series with MRSA MW2 [1] is listed as “no changes in cellular fluorescence”. Further, the MIC in series [2] stood at 2 µg/mL (≈ 4.2 µM); in [3], 2 µg/mL (≈ 4.2 µM); in series [4], 2 µg/mL (≈ 4.2 µM); in the series with MRSA MW2 [5] (Staphylococcus aureus, MRSA MW2, 18 h, 37 °C, read-out: MIC), 2 µg/mL (≈ 4.2 µM); with Acinetobacter baumannii, 32 µg/mL (≈ 67.2 µM); with Enterococcus faecium, 2 µg/mL (≈ 4.2 µM). The MIC in series [7] is 2 µg/mL (≈ 4.2 µM); with Enterobactor aerogens, above 64 µg/mL; with Pseudomonas aeruginosa, above 64 µg/mL. Also, the Eukaryotic cell cytotoxicity worked out at 16 µg/mL in the series with MKN-28, 16 µg/mL in the series with A549 and 2 µg/mL with HepG2. Also, the MBC with MRSA MW2 [5] was above 64 µg/mL; in the series on MRSA MW2 [5] (Staphylococcus aureus, read-out: MBC), above 64 µg/mL. The “Fractional Inhibitory Concentration (FIC) Index” value in the series with MRSA-MW2 (with Doxycycline) stood at 2.0; in the series on MRSA-MW2 (with Erythromycin) it was 0.5; in the series with MRSA-MW2 (with Gentamycin) it was 0.625; in the series on MRSA-MW2 (with Oxacillin) it was 0.75; in the series on MRSA-MW2 (with Polymyxin B) it was 1.0. In addition, in the series on MRSA MW2 [6], the bactericidal/bacteriostatic classification result is on record as “bacteriostatic”.
